Patent publication US12195482B1 (Arcus Biosciences, Inc., priority 2022, dated 2025)

Experiments:
[1] = biological target: T1, recombinant human TYRO3 (Homo sapiens, UniProt Q06418); assay: Biochemical potency, HTRF KinEASE-TK kinase assay; conditions: 1 nM TYRO3, 700 μM ATP
T1 construct: purchased Invitrogen
T1 sequence (Q06418 41-890): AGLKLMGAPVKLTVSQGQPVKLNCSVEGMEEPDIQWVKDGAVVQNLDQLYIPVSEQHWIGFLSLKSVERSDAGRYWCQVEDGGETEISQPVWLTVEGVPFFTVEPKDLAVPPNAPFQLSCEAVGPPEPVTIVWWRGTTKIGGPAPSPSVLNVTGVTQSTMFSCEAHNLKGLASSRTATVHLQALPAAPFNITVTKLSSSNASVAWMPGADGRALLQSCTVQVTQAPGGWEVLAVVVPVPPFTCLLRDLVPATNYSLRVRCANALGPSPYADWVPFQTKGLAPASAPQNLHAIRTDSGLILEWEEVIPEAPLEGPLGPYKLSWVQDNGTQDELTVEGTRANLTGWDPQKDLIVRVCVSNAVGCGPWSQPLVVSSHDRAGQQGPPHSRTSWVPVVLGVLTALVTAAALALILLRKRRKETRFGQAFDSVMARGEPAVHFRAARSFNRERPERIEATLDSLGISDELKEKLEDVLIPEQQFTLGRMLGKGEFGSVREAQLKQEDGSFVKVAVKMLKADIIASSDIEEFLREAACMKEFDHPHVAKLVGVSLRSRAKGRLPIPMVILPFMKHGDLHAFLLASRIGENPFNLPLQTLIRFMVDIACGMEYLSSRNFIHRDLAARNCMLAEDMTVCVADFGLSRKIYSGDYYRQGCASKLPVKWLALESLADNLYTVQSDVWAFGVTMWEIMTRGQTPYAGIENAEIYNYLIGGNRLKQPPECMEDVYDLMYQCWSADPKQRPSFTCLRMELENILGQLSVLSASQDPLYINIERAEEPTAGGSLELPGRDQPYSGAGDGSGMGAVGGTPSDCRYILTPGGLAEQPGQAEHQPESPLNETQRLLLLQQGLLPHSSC
Method in brief: (§1)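 Compounds preincubated 1 h at RT with enzyme in 50 mM HEPES pH 7.4, 10 mM MgCl2, 0.01% BSA, 1 mM DTT; reactions then ran 2 h at RT with 5 nM AXL or 1 nM TYRO3/MER, 800 nM TK substrate-biotin, 700 μM ATP, 1% DMSO. HTRF 665/620 ratio read; percent activity calculated.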

[2] = biological target: T2, recombinant human MER (Homo sapiens, UniProt Q12866); assay: Biochemical potency, HTRF KinEASE-TK kinase assay; conditions: 1 nM MER, 700 μM ATP
T2 construct: purchased Invitrogen
T2 sequence (Q12866 21-999): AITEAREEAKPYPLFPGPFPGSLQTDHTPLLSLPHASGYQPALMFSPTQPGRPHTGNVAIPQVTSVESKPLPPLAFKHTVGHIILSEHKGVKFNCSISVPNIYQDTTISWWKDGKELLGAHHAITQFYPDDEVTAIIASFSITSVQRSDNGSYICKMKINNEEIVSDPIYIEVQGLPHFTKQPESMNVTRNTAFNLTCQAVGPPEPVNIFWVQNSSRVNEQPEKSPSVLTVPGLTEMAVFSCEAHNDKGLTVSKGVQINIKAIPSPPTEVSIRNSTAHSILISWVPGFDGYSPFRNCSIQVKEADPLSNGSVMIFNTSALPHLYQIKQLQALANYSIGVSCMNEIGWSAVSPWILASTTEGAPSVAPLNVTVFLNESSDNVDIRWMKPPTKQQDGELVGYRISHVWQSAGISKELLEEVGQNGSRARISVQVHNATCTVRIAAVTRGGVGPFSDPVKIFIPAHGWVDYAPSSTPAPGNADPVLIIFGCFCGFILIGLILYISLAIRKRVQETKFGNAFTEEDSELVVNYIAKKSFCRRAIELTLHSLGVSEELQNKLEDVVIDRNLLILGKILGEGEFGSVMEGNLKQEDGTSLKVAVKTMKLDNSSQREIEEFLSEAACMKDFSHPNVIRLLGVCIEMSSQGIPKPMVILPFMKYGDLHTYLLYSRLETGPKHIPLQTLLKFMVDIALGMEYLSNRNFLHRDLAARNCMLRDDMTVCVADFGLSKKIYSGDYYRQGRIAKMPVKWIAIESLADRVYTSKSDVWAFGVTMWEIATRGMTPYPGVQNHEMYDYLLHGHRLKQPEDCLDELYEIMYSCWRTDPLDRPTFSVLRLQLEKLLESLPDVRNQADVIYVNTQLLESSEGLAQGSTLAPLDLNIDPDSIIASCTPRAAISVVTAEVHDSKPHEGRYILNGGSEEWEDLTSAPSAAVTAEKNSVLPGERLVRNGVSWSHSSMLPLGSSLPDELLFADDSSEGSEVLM
Method in brief: as §1

For `Cn1ccnc1-c1ccc(-c2n[nH]c3ncc(-c4ccc5c(c4)CC[C@@H](N4C6COCC4C6)CC5)cc23)cc1` [Example 111, 6-[(7S)-2-{3-[4-(1-Methyl-1H-imidazol-2-yl)phenyl]-1H-pyrazolo[3,4-b]pyridin-5-yl}-6,7,8,9-tetrahydro-5H-benzo[7]annulen-7-yl]-3-oxa-6-azabicyclo[3.1.1]heptane], the IC50 [1] was < 0.1 µM and the IC50 [2] was < 0.1 µM.
Compound `CCOc1cccnc1-c1ccc(-c2n[nH]c3ncc(-c4ccc5c(c4)CC[C@@H](N4C6COCC4C6)CC5)cc23)cc1` [Example 181, 6-[(7S)-2-{3-[4-(3-Ethoxypyridin-2-yl)phenyl]-1H-pyrazolo[3,4-b]pyridin-5-yl}-6,7,8,9-tetrahydro-5H-benzo[7]annulen-7-yl]-3-oxa-6-azabicyclo[3.1.1]heptane] has an IC50 [1] of 0.1 to 1 µM and an IC50 [2] of 0.1 to 1 µM.
For `CS(=O)(=O)c1cccnc1-c1ccc(-c2n[nH]c3ncc(-c4ccc5c(c4)CC[C@@H](N4C6COCC4C6)CC5)cc23)cc1` [Example 101, 6-[(7S)-2-{3-[4-(3-Methanesulfonylpyridin-2-yl)phenyl]-1H-pyrazolo[3,4-b]pyridin-5-yl}-6,7,8,9-tetrahydro-5H-benzo[7]annulen-7-yl]-3-oxa-6-azabicyclo[3.1.1]heptane], the IC50 [1] was < 0.1 µM and the IC50 [2] was 0.1 to 1 µM.
`CC(C)(O)c1ccccc1-c1ccc(-c2c[nH]c3ncc(-c4ccc5c(c4)CC[C@@H](N4C6COCC4C6)CC5)cc23)cn1` [Example 114, 2-[2-(5-{5-[(7S)-7-{3-Oxa-6-azabicyclo[3.1.1]heptan-6-yl}-6,7,8,9-tetrahydro-5H-benzo[7]annulen-2-yl]-1H-pyrrolo[2,3-b]pyridin-3-yl}pyridin-2-yl)phenyl]propan-2-ol] gave an IC50 [1] of 0.1 to 1 µM and an IC50 [2] of 0.1 to 1 µM.
With `O=C1OCCN1c1cccnc1-c1ccc(-c2n[nH]c3ncc(-c4ccc5c(c4)CC[C@@H](N4C6COCC4C6)CC5)cc23)cc1` [Example 121, 3-[2-(4-{5-[(7S)-7-{3-Oxa-6-azabicyclo[3.1.1]heptan-6-yl}-6,7,8,9-tetrahydro-5H-benzo[7]annulen-2-yl]-1H-pyrazolo[3,4-b]pyridin-3-yl}phenyl)pyridin-3-yl]-1,3-oxazolidin-2-one] the IC50 [1] was < 0.1 µM and the IC50 [2] was < 0.1 µM.
`CN(C)C(=O)c1cccnc1-c1ccc(-c2n[nH]c3ncc(-c4ccc5c(c4)CC[C@@H](N4C6COCC4C6)CC5)cc23)cc1` [Example 167, N,N-Dimethyl-2-(4-{5-[(7S)-7-{3-oxa-6-azabicyclo[3.1.1]heptan-6-yl}-6,7,8,9-tetrahydro-5H-benzo[7]annulen-2-yl]-1H-pyrazolo[3,4-b]pyridin-3-yl}phenyl)pyridine-3-carboxamide] was tested, and the IC50 [1] was < 0.1 µM and the IC50 [2] was 0.1 to 1 µM.
